Experimental data reported in patent US11932610B1, “4-(5-(3-fluorophenyl)-4-phenyl-4H-1,2,4-triazol-3-ylthio)butanoic acid as an antimicrobial compound” (priority 2023, dated 2024).

Legend:
[1] = tested on: Bacillus cereus, Staphylococcus aureus, Pseudomonas aeruginosa, Escherichia coli, Aspergillus flavus, Chrysosporium keratinophilum; assay: agar plate disc-diffusion antimicrobial test; format: cell-based; conditions: 6 mm discs wetted with 10 μL of 10 mg/mL in DMSO; 37° C., 48 h (72 h for fungi); DMSO control zone subtracted
Procedure: The agar plate disc-diffusion method was applied. Sterilized filter papers (6 mm in diameter) were wetted with 10 μL of a solution of 4-(5-(3-fluorophenyl)-4-phenyl-4H-1,2,4-triazol-3-ylthio)butanoic acid (III) to be tested, containing 10 mg/mL in DMSO, and the discs were allowed to air dry. The discs were then placed onto the surface of agar plates (nutrient agar for bacteria and Sabouraud's dextrose agar for fungi) seeded with the test organism. Each plate contained 15 mLof the agar medium, previously seeded with 0.2 mL of the broth culture of each organism pregrown for 18 h. The plates were incubated at 37° C. for 48 h, and 72 h for fungi. The inhibition zones was measured in mm. Discs impregnated with DMSO were used as a control, and its inhibition zone was subtracted from the tested compound actual inhibition zone. […] The antibacterial activity was screened against gram positive bacteria namely Bacillus cereus and Staphylococcus aureus and gram-negative bacterial strains namely Pseudomonas aeruginosa and Escherichia coli, while the antifungal activity was screened against Aspergillus flavus and Chrysosporium keratinophilum.

melting point: 173 °C
SMILES: O=C(O)CCCSc1nnc(-c2cccc(F)c2)n1-c1ccccc1 [III, 4-(5-(3-fluorophenyl)-4-phenyl-4H-1,2,4-triazol-3-ylthio)butanoic acid]
antimicrobial activities against different microbes [1]: excellent antimicrobial activities
